Where two headings read alike, the source gives them in different places.
Legend:
HT29 = experiment: SRB colorimetric cytotoxicity assay, HT29; type: cell-based; conditions: Homo sapiens, read-out: GI50 (M) HT29
Text: The aim of this assay is to evaluate the in vitro cytostatic (ability to delay or arrest tumor cell growth) or cytotoxic (ability to kill tumor cells) activity of the samples being tested.
A colorimetric assay, using sulforhodamine B (SRB) reaction has been adapted to provide a quantitative measurement of cell growth and viability (using the technique developed by Skehan et al., J. Natl. Cancer Inst. 1990 and following the protocol detailed in V. Vichai and K. Kirtikara (2006) Nature Protoc. 1, 1112-1116.)
This form of assay employs 96-well cell culture microplates. All the cell lines used in this study were obtained from the American Type Culture Collection (ATCC), unless otherwise indicated, and derive from different types of human cancer.
Cells were maintained in Dulbecco's Modified Eagle Medium (DMEM) (for A549, HT-29 and MDA-MB-231) or RPMI (for PSN-1) supplemented with 10% Fetal Bovine Serum (FBS), 2 mM L-glutamine, 100 U/mL penicillin and 100 U/mL streptomycin at 37° C., 5% CO2 and 98% humidity. For the experiments, cells were harvested from subconfluent cultures using trypsinization and resuspended in fresh medium before counting and plating.
Cells were seeded in 96 well microtiter plates, at 5×10^3 cells per well in aliquots of 150 μL, and allowed to attach to the plate surface for 18 hours (overnight) in drug free medium. After that, one control (untreated) plate of each cell line was fixed (as described below) and used for time zero reference value. Culture plates were then treated with test compounds (50 μL aliquots of 4× concentrated compound stock solutions made in complete culture medium) using ten serial dilutions (concentrations ranging from […]) and triplicate cultures (final concentration of DMSO being 1%). After 72 hours treatment, the antitumor effect was measured by using the SRB methodology: Briefly, cells were washed twice with PBS, fixed for 15 min in 1% glutaraldehyde solution at room temperature, rinsed twice in PBS, and stained in 0.4% SRB solution for 30 min at room temperature. Cells were then rinsed several times with 1% acetic acid solution and air-dried at room temperature. SRB was then extracted in 10 mM trizma base solution and the absorbance measured in an automated spectrophotometric plate reader at 490 nm. Effects on cell growth and survival were estimated by applying the NCI algorithm (Boyd M R and Paull K D. Drug Dev. Res. 1995, 34, 91-104).
Using the mean±SD of triplicates, a dose-response curve was automatically generated using nonlinear regression analysis to a 4-parameter logistic curve. Three reference parameters were calculated (NCI algorithm) by automatic interpolation: GI50=compound concentration that produces […] cell growth inhibition, as compared to control cultures.

H460 xenografts = experiment: Example 5, NSCLC xenograft model H460; type: in vivo; conditions: for tumor reduction compared to placebo: higher doses 16, 2 or 1 mg/kg; for TV, median (IQR) / Median survival time: iv Q7dx3; for TV, median (IQR): high dose: PM060184 16, Comp. 2 2, Comp. 3 1 mg/kg; for antitumor activity compared to PM060184 (16 mg/kg) / mean time frame during which the animals had tumor remission / mean body weight reduction: compound 2 2.0 mg/kg, compound 3 1.0 mg/kg; for animals with complete tumor remission: highest dose: compound 2 2.0, compound 3 1.0 mg/kg; for mean body weight reduction: recorded on Day 9
Description: Female athymic nu/nu mice (Harlan Laboratories Models, S.L. Barcelona, Spain or Envigo, Spain) were utilized for all experiments. Animal were housed in individually ventilated cages Sealsafe® Plus, Techniplast S.P.A.), up to ten per cage on a 12-hour light-dark cycle at 21-23° C. and 40-60% humidity. Mice were allowed free access to irradiated standard rodent diet (Tecklad 2914C) and sterilized water. Animals were acclimated for at least 5 days prior to tumor implantation with a tumor cell suspension.
H460 cells were maintained in vitro at 37° C. with 5% CO2 in Dulbecco's Modified Eagle's Medium (Sigma-Aldrich, Co). Culture cells were passaged every 3 to 5 days upon reaching confluence. Each animal was subcutaneously implanted (on the right flank using 26G needle and a 1 cc syringe) at 4-6 weeks of age with 5×10^6 H460 cells suspended in 0.05 mL of a solution consisting of 50% Matrigel® (Corning Incorporated Life Sciences) and 50% medium without serum or antibiotics.
All treatments were intravenously administered on a weekly basis at their MTD, ¼ MTD and 1/16 MTD (high, medium and low dose).
Briefly: • 4 to 6 week-old athymic nu/nu female mice were subcutaneously implanted with tumor cells growing in culture. • When tumors reached a certain volume, tumor bearing animals (N=8-10/group) were randomly allocated into treatment groups. • Tumor dimensions and body weights were recorded 2-3 times per week starting from the first day of treatment (Day 0). Treatments producing >20% lethality and/or 20% net body weight loss were considered toxic. Tumor volume was calculated using the equation (a·b^2)/2, where a and b were the longest and shortest diameters, respectively. Animals were euthanized when their tumors reached ca. 2,000 mm^3 and/or severe necrosis was seen. • Median was calculated for tumor volume on each measurement day. • Antitumor effect was assessed comparing tumor volume data from groups following the 1st, 2nd, 3rd study weeks, or more depending on the case, using a two-tailed Mann-Whitney U test. The data are presented as medians and interquartile range (IQR). • Complete tumor regression (CR) was defined when tumor volume<63 mm^3 for 2 or more consecutive measurements. • Treatment tolerability was assessed by monitoring body weight evolution, clinical signs of systemic toxicity as well as evidences of local damage at the injection site.
PM060184 was provided in the form of freeze-dried vials of lyophilized product. Each vial was reconstituted with water for infusion to a concentration of 2.5 mg/mL.
Compounds 2 and 3 were provided in the powder form and were solubilized with hydroxy-propyl-β-cyclodextrin (HPβCD), reaching a concentration of 1 mg/ml or 0.2 mg/ml, respectively. Placebo was provided in the form of lyophilised cake containing 1.2 g of hydroxy-propyl-β-cyclodextrin (HPβCD) which was reconstituted with water for infusion.
In these experiments, compounds 2, 3 and PM060184, as well as placebo, were intravenously administered once per week for 3 consecutive weeks, on Days 0, 7 and 14, whenever it was possible.
The experiment was carried out as previously explained. When tumors reached ca. 160-170 mm^3, tumor bearing animals (N=10/group) were randomly allocated into the following treatment groups:
Treatments were initiated on Day 0.

[1] = high dose: PM060184 16.0, Comp. 2 2.0, Comp. 3 1.0 mg/kg
[2] = high dose: compound 2 2.0, compound 3 1.0, PM060184 16 mg/kg
[3] = low dose: PM060184 1.0, Comp. 2 0.125, Comp. 3 0.0625 mg/kg
[4] = medium dose: PM060184 4.0, Comp. 2 0.5, Comp. 3 0.25 mg/kg

Structure (SMILES)	GI50 (HT29; HT-29, 72 h) [M]	tumor reduction compared to placebo (H460 xenografts; Day 7)	TV, median (IQR) (H460 xenografts; Day 7)	TV, median (IQR) (H460 xenografts; Day 14)	TV, median (IQR) (H460 xenografts; Day 21)	TV, median (IQR) (H460 xenografts; Day 28)	TV, median (IQR) (H460 xenografts; Day 35)	antitumor activity compared to PM060184 (16 mg/kg) (H460 xenografts)	mean time frame during which the animals had tumor remission (H460 xenografts) [days]	Median survival time (H460 xenografts; [1]) [days]	tumor remissions lasted (H460 xenografts; [2])	animals with complete tumor remission (H460 xenografts) [%]	Median survival time (H460 xenografts; [3]) [days]	Median survival time (H460 xenografts; [4]) [days]	mean body weight reduction (H460 xenografts)	also measured
COC1=CC[C@@H]([C@@H](C)/C=C(C)/C=C\C=C/C(=O)N[C@H](C(=O)N/C=C\C[C@H](C/C=C(\C)F)OC(N)=O)C(C)(C)C)OC1=O [Compound 2]	1.31e-11	very strong, statistically significant tumor reduction	114.7 (97.2-131.6) mm3	80.9 (61.1-109.3) mm3	53.5 (33.4-59.7) mm3	95.0 (73.2-119.1) mm3	505.4 (428.9-583.7) mm3	stronger, statistically significant, antitumor activity	8.8	45.5	more than 48 days	100	14	40	ca. −13.4%	tumor remissions lasted (H460 xenografts; medium dose: compound 2 0.5 mg/kg): 30.9 days
COC1=CC[C@@H]([C@@H](C)/C=C(C)/C=C\C=C/C(=O)N[C@H](C(=O)N/C=C\C[C@H](CC=C(C)C)OC(N)=O)C(C)(C)C)OC1=O [Compound 3]	2.22e-11	very strong, statistically significant tumor reduction	123.9 (93.4-157.6) mm3	80.3 (71.0-83.5) mm3	59.3 (38.7-62.5) mm3	77.6 (55.3-85.1) mm3	374.8 (257.4-438.2) mm3	stronger, statistically significant, antitumor activity	7.8	–	more than 45.1 days	100	14	–	ca. −18.5%	antitumor activity of compound 3 compared to compound 2 (H460 xenografts; at the MTD's, 1.0 mg/kg or 2.0 mg/kg): statistically significant higher antitumor activity than compound 2; Median survival time (H460 xenografts; high dose: PM060184 16.0, Comp. 2 2.0, Comp. 3 1.0 mg/kg, 1 mg/kg): 45.5 days; Median survival time (H460 xenografts; high dose: PM060184 16.0, Comp. 2 2.0, Comp. 3 1.0 mg/kg, listed as Comp. 3, 1 mg/kg): 48 days; Median survival time (H460 xenografts; medium dose: PM060184 4.0, Comp. 2 0.5, Comp. 3 0.25 mg/kg, 0.25 mg/kg): 40 days; Median survival time (H460 xenografts; medium dose: PM060184 4.0, Comp. 2 0.5, Comp. 3 0.25 mg/kg, listed as Comp. 3, 0.25 mg/kg): 38.5 days
C/C=C\C[C@@H](C/C=C\NC(=O)[C@@H](NC(=O)\C=C/C=C\C(C)=C\[C@H](C)[C@@H]1CC=C(OC)C(=O)O1)C(C)(C)C)OC(N)=O [PM060184, reference compound]	–	very strong, statistically significant tumor reduction	100.1 (80.6-119.0) mm3	97.8 (74.5-149.3) mm3	129.4 (83.5-172.3) mm3	631.0 (454.0-873.9) mm3	1470 (1470-1666) mm3	–	–	37	two	–	16	30	–	GI50 (HT29; HT-29, 72 hours treatment, SRB): 8.3e-11 M; animals with complete tumor remission (number out of 10) (H460 xenografts; PM060184 16 mg/kg): Four out of 10; body weight decrease (H460 xenografts; recorded on Day 12, PM060184 16 mg/kg): ca. −6.8%
